In ChEMBL document CHEMBL1130898, “4-Alkylpiperidines related to SR-48968: potent antagonists of the neurokinin-2 (NK2) receptor” (Bioorg Med Chem Lett, 1998):

Assays:
Substance-K receptor = biological target: T1, Substance-K receptor (Homo sapiens, UniProt P21452); test: Displacement of [3H]- NKA from human NK-2 receptor expressed in MEL cells; type: cell-based
T1 sequence (P21452 whole entry): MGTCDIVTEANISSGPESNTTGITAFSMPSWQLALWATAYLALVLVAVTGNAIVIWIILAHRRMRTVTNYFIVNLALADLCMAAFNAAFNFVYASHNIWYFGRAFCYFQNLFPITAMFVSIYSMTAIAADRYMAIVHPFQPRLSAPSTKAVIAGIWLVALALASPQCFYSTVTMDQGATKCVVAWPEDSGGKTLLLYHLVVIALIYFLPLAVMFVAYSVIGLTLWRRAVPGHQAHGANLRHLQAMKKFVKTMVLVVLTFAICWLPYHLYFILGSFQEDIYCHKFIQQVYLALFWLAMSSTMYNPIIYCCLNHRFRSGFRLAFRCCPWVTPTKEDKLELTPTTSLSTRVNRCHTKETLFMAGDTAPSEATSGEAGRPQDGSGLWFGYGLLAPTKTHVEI

[1] = biological target: T2, Substance-K receptor (Cavia porcellus) (UniProt Q64077); test: Inhibition of [beta-Ala]NKA(4-10)-induced contraction of isolated guinea pig trachea; type: functional, tissue-based
T2 sequence (whole entry): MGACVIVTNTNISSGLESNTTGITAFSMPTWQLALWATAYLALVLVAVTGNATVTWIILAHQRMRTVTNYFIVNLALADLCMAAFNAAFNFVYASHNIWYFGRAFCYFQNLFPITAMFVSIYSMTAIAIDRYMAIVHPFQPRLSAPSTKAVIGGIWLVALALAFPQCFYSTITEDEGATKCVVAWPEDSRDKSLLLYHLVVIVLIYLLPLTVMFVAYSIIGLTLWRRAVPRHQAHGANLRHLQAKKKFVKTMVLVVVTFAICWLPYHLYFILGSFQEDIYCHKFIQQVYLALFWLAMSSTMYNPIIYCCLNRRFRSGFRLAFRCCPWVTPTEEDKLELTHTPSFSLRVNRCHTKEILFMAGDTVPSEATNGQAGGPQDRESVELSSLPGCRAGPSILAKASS

Cavia porcellus [2] = test: Compound was administered perorally and evaluated for oral activity in neurokinin A-induced guinea pig dyspnea model.; type: functional
Cavia porcellus [3] = test: Compound was administered intravenously and evaluated for activity against neurokinin A-induced guinea pig dyspnea model; type: functional; conditions: iv
Cavia porcellus [4] = test: Compound was administered perorally (po) and evaluated for oral activity in neurokinin A-induced guinea pig dyspnea model at 5 umol/kg dose; type: functional
Cavia porcellus [5] = test: Compound was administered perorally and evaluated for oral activity in neurokinin A-induced guinea pig dyspnea model at 5 umol/Kg dose; type: functional

| Compound | Ki (Substance-K receptor) [nM] | pKB [1] | ED50 (Cavia porcellus [2]) [µmol/kg] | ED50 (Cavia porcellus [3]) [µmol/kg] | inhibition in vivo at 5 µmol/kg (Cavia porcellus [4]) [%] | inhibition in vivo at 5 µmol/kg (Cavia porcellus [5]) [%] |
| --- | --- | --- | --- | --- | --- | --- |
| CC(=O)NC1(c2ccccc2)CCN(CCC(CN(C)C(=O)c2ccccc2)c2ccc(Cl)c(Cl)c2)CC1 (stereo in doubt; 1) [listing 1 of 2 here] | 0.6 |  | 1.97 |  |  |  |
| CC(=O)NC1(c2ccccc2)CCN(CCC(CN(C)C(=O)c2ccccc2)c2ccc(Cl)c(Cl)c2)CC1 (stereo in doubt; 2) [listing 1 of 2 here] | 1.75 |  |  |  |  |  |
| CC(=O)NCCC1CCN(CCC(CN(C)C(=O)c2ccccc2)c2ccc(Cl)c(Cl)c2)CC1 (stereo unspecified) | 66 | 7.9 |  |  |  |  |
| CC/C(=N\O)C1CCN(CCC(CN(C)C(=O)c2ccccc2)c2ccc(Cl)c(Cl)c2)CC1 (stereo unspecified) | 1.3 | 8.8 |  |  | 20 |  |
| CC(=O)OCCC1CCN(CCC(CN(C)C(=O)c2ccccc2)c2ccc(Cl)c(Cl)c2)CC1 (stereo unspecified) |  | 7.8 |  |  |  |  |
| CCC(=NO)C1CCN(CCC(CN(C)C(=O)c2ccccc2)c2ccc(Cl)c(Cl)c2)CC1 (stereo unspecified) | 2.7 | 9.1 |  |  |  |  |
| CC(=O)NC1(c2ccccc2)CCN(CCC(CN(C)C(=O)c2ccccc2)c2ccc(Cl)c(Cl)c2)CC1 (stereo in doubt; 1) [listing 2 of 2 here] |  | 9.1 |  |  |  |  |
| CC(=O)NC1(c2ccccc2)CCN(CCC(CN(C)C(=O)c2ccccc2)c2ccc(Cl)c(Cl)c2)CC1 (stereo in doubt; 2) [listing 2 of 2 here] |  | 9.2 |  |  |  |  |
| CC/C(=N\OC)C1CCN(CCC(CN(C)C(=O)c2ccccc2)c2ccc(Cl)c(Cl)c2)CC1 (stereo unspecified) | 6.5 | 7.6 |  |  |  |  |

Now from value to molecule, other results behind:

| Ki (Substance-K receptor) [nM] | pKB [1] | Compound | ED50 (Cavia porcellus [2]) [µmol/kg] | ED50 (Cavia porcellus [3]) [µmol/kg] | inhibition in vivo at 5 µmol/kg (Cavia porcellus [4]) [%] | inhibition in vivo at 5 µmol/kg (Cavia porcellus [5]) [%] |
| --- | --- | --- | --- | --- | --- | --- |
| 9.9 | 7.5 | CCCC1CCN(CCC(CN(C)C(=O)c2ccccc2)c2ccc(Cl)c(Cl)c2)CC1 (stereo unspecified) |  |  |  |  |
| 9.2 | 8.6 | CCC(=O)C1CCN(CCC(CN(C)C(=O)c2ccccc2)c2ccc(Cl)c(Cl)c2)CC1 (stereo unspecified) |  |  |  |  |
| 0.84 | 8.1 | CCC(O)(CC)C1CCN(CC[C@H](CN(C)C(=O)c2ccccc2)c2ccc(Cl)c(Cl)c2)CC1 | 3.49 | 0.4 |  |  |
| 47 | 8.3 | CN(CC(CCN1CCC(CCO)CC1)c1ccc(Cl)c(Cl)c1)C(=O)c1ccccc1 (stereo unspecified) |  |  |  | 7 |
| 2.1 | 8.8 | CC/C(=N/O)C1CCN(CCC(CN(C)C(=O)c2ccccc2)c2ccc(Cl)c(Cl)c2)CC1 (stereo unspecified) |  |  |  |  |
| 4.7 | 8.4 | CCCC(O)(CCC)C1CCN(CCC(CN(C)C(=O)c2ccccc2)c2ccc(Cl)c(Cl)c2)CC1 (stereo unspecified) | 1.4 | 0.54 |  |  |
| 7.7 | 7.5 | CN(CC(CCN1CCC(C(C)(C)O)CC1)c1ccc(Cl)c(Cl)c1)C(=O)c1ccccc1 (stereo unspecified) |  |  |  |  |
| 142 | 8 | CN(CC(CCN1CCC(CO)CC1)c1ccc(Cl)c(Cl)c1)C(=O)c1ccccc1 (stereo unspecified) |  |  |  | 13 |
| 33.5 | 7.8 | CC(O)C1CCN(CCC(CN(C)C(=O)c2ccccc2)c2ccc(Cl)c(Cl)c2)CC1 (stereo unspecified) |  |  |  |  |
| 13.1 | 7.9 | CCC(O)C1CCN(CCC(CN(C)C(=O)c2ccccc2)c2ccc(Cl)c(Cl)c2)CC1 (stereo unspecified) |  |  |  |  |
| 3.7 | 7.5 | CCCC(O)C1CCN(CCC(CN(C)C(=O)c2ccccc2)c2ccc(Cl)c(Cl)c2)CC1 (stereo unspecified) |  |  |  |  |
| 3.5 | 8.8 | CCC(O)(CC)C1CCN(CCC(CN(C)C(=O)c2ccccc2)c2ccc(Cl)c(Cl)c2)CC1 (stereo unspecified) |  |  | 63 |  |
